According to ChEMBL document CHEMBL3045726, “Fungicidal Activity of Pyrazolylpyrimidines” (1990):
In brackets after ≈: the same amount, converted by molar mass.

How the values were obtained:
Type in all cases: functional
Pyricularia oryzae [1] = assay: Fungicidal activity against Magnaporthe oryzae by agar dilution method
Pyricularia oryzae [2] = assay: Fungicidal activity against Magnaporthe oryzae in rice seedlings assessed as control of rice blast at 500 ppm by preventive foliar treatment
Nakataea oryzae = assay: Fungicidal activity against Magnaporthe salvinii by agar dilution method
Pyricularia oryzae [3] = assay: Fungicidal activity against Magnaporthe oryzae in rice seedlings assessed as control of rice blast at 500 ppm by curative foliar treatment
Podosphaera fuliginea [4] = assay: Fungicidal activity against Podosphaera fuliginea in cucumber assessed as control of cucumber powdery mildew at 62.5 ppm measured after 7 days of inoculation
Podosphaera fuliginea [5] = assay: Fungicidal activity against Podosphaera fuliginea in cucumber assessed as control of cucumber powdery mildew at 125 ppm measured after 10 days of inoculation
Podosphaera fuliginea [6] = assay: Fungicidal activity against Podosphaera fuliginea in cucumber assessed as control of cucumber powdery mildew at 125 ppm measured after 7 days of inoculation
Podosphaera fuliginea [7] = assay: Fungicidal activity against Podosphaera fuliginea in cucumber assessed as control of cucumber powdery mildew at 62.5 ppm measured after 10 days of inoculation

Row | Structure (SMILES) | MIC (Pyricularia oryzae [1]) | Activity (Pyricularia oryzae [2]) | MIC (Nakataea oryzae) | Activity (Pyricularia oryzae [3]) | Activity (Podosphaera fuliginea [4]) | Activity (Podosphaera fuliginea [5]) | Activity (Podosphaera fuliginea [6]) | Activity (Podosphaera fuliginea [7])
1 | Cc1cc(C)nc(-n2nc(C)c(CC(C)C)c2C)n1 | 6.25 µg/mL (≈ 24.2 µM) | 90% | 6.25 µg/mL (≈ 24.2 µM) | 100% |  |  |  | 
2 | Cc1cc(C)nc(-n2nc(C)cc2-c2ccccc2)n1 | 100 µg/mL (≈ 378 µM) | 67% |  | 27% |  |  |  | 
3 | CCc1c(C)nn(-c2nc(C)cc(C)n2)c1C | 50 µg/mL (≈ 217 µM) | 100% | 50 µg/mL (≈ 217 µM) | 100% |  |  |  | 
4 | Cc1nc(-n2nc(C)c(Br)c2C)nc(O)c1Br | 50 µg/mL (≈ 138 µM) | 40% | 25 µg/mL (≈ 69.1 µM) | 31% |  |  |  | 
5 | Cc1cc(C)nc(-n2cc(C)nc2C)n1 | > 100 µg/mL | 59% | > 100 µg/mL | 0% |  |  |  | 
6 | Cc1cc(C)nc(-n2[nH]c(C)cc2=O)n1 | > 100 µg/mL | 31% | > 100 µg/mL | 0% |  |  |  | 
7 | Cc1cc(C)nc(-n2nc(C(C)C)cc2C(C)C)n1 | 6.25 µg/mL (≈ 24.2 µM) | 31% | 6.25 µg/mL (≈ 24.2 µM) | 100% |  |  |  | 
8 | Cc1cc(C)nc(-n2nc(C)cc2C)n1 | > 100 µg/mL | 99% | 100 µg/mL (≈ 494 µM) | 100% |  |  |  | 
9 | Cc1cc(C)n(-c2nc(Cl)nc(Cl)n2)n1 | > 100 µg/mL | 100% | > 100 µg/mL | 100% |  |  |  | 
10 | Cc1cc(C)n(-c2nc(C)c(C)s2)n1 | > 100 µg/mL | 0% | > 100 µg/mL | 15% |  |  |  | 
11 | Cc1cc(C)n(-c2nc(C)c3ccccc3n2)n1 | 25 µg/mL (≈ 105 µM) | 71% | 6.25 µg/mL (≈ 26.2 µM) | 98% |  |  |  | 
12 | COc1cc(C)nc(-n2nc(C)cc2C)n1 | 50 µg/mL (≈ 229 µM) | 81% | 100 µg/mL (≈ 458 µM) | 96% |  |  |  | 
13 | Cc1cc(C)nc(-n2nc(C(C)(C)C)cc2C(C)(C)C)n1 | > 100 µg/mL | 69% | > 100 µg/mL | 89% |  |  |  | 
14 | Cc1cc(C)nc(-n2ccnc2C)n1 | > 100 µg/mL | 59% | > 100 µg/mL | 40% |  |  |  | 
15 | CCNc1nc(NCC)nc(-n2nc(C)cc2C)n1 | 50 µg/mL (≈ 191 µM) | 100% | 25 µg/mL (≈ 95.7 µM) | 81% |  |  |  | 
16 | Cc1cc(C)n(-c2ncc3ccccc3n2)n1 | 25 µg/mL (≈ 111 µM) | 84% | 25 µg/mL (≈ 111 µM) | 99% |  |  |  | 

Row | Structure (SMILES) | MIC (Pyricularia oryzae [1]) | Activity (Pyricularia oryzae [2]) | MIC (Nakataea oryzae) | Activity (Pyricularia oryzae [3]) | Activity (Podosphaera fuliginea [4]) | Activity (Podosphaera fuliginea [5]) | Activity (Podosphaera fuliginea [6]) | Activity (Podosphaera fuliginea [7])
17 | Cc1cc(C)n(-c2nc3ccccc3[nH]2)n1 | 100 µg/mL (≈ 471 µM) |  | 25 µg/mL (≈ 118 µM) | 0% |  |  |  | 
18 | CCc1cc(CC)n(-c2ncccn2)n1 | 100 µg/mL (≈ 494 µM) | 90% | > 100 µg/mL | 100% |  |  |  | 
19 | COc1cc(C)nc(-n2nc(C)cc2OC)n1 [EPIRIZOLE] | > 100 µg/mL |  | > 100 µg/mL | 89% |  |  |  | 
20 | Cc1ccnc(-n2nc(C)c(C)c2C)n1 | 50 µg/mL (≈ 247 µM) | 63% | 50 µg/mL (≈ 247 µM) | 100% |  |  |  | 
21 | Cc1ccnc(-n2nc(C)cc2C)n1 | > 100 µg/mL | 78% | > 100 µg/mL | 96% |  |  |  | 
22 | Cc1cc(C)n(-c2nc(C)c(CC(C)C)c(O)n2)n1 | 6.25 µg/mL (≈ 24 µM) | 93% | 0.78 µg/mL (≈ 3 µM) | 98% | 100% | 100% | 100% | 99.4%
23 | CCc1cc(CC)n(-c2nc(C)cc(C)n2)n1 | 25 µg/mL (≈ 109 µM) | 40% | 25 µg/mL (≈ 109 µM) | 100% |  |  |  | 
24 | CCc1cc(C)n(-c2ncccn2)n1 | > 100 µg/mL | 74% | > 100 µg/mL | 93% |  |  |  | 
25 | COc1cc(C)nn1-c1nc(C)cc(C)n1 | > 100 µg/mL | 40% | > 100 µg/mL | 40% |  |  |  | 
26 | C=CCc1c(C)nn(-c2nc(C)cc(C)n2)c1C | 100 µg/mL (≈ 413 µM) | 85% | 25 µg/mL (≈ 103 µM) | 99% |  |  |  | 
27 | CCCCc1c(C)nc(-n2nc(C)cc2C)nc1O | 6.25 µg/mL (≈ 24 µM) | 48% | 0.1 µg/mL (≈ 0.384 µM) | 99% | 100% | 100% | 100% | 100%
28 | Cc1nc(-n2nc(C)c(C)c2C)nc(C)c1C | 50 µg/mL (≈ 217 µM) | 81% | 50 µg/mL (≈ 217 µM) | 99% |  |  |  | 
29 | CC(=O)c1c(C)nn(-c2nc(C)cc(C)n2)c1C | > 100 µg/mL | 40% | > 100 µg/mL | 84% |  |  |  | 
30 | Cc1cc(C)n(-c2ccc(Cl)nn2)n1 | > 100 µg/mL | 31% | > 100 µg/mL | 31% |  |  |  | 
31 | Cc1cc(C)n(-c2ncncn2)n1 | > 100 µg/mL | 59% | > 100 µg/mL | 50% |  |  |  | 
32 | CCOC(=O)c1c(C)nn(-c2nc(C)cc(C)n2)c1C | > 100 µg/mL | 69% | > 100 µg/mL | 85% |  |  |  | 
